Assay [1] has as its system MIA PaCa-2. Description: Cytotoxicity against human PaCa2. It is filed as functional, cell-based.
In assay [2] the test system is Staphylococcus aureus. Kind of assay: Antibacterial activity against Staphylococcus aureus at 100 ug/disk after 18 hrs by paper disk agar diffusion assay. It counts as functional. The note with it: read-out: IZ.
The subject of assay [3] is Candida albicans. Kind of assay: Antifungal activity against Candida albicans at 200 ug/disk after 18 hrs by paper disk agar diffusion assay. It counts as functional, organism-based. Background: Agar diffusion results depend on both activity and mobility in agar.
Assay [4] has as its system DNA. Description: Binding affinity to calf thymus DNA by DNA intercalating assay relative to ethidium bromide. It counts as nucleic-acid assay. Particulars: Bos taurus.
Assay [5] is described as follows: Cytotoxicity against human NSCLC-N6 L16. It is filed as functional.
Assay [6] deals with Staphylococcus aureus. Description: Antibacterial activity against Staphylococcus aureus at 50 ug/disk after 18 hrs by paper disk agar diffusion assay. The note with it: read-out: IZ. It counts as functional.
The test system of assay [7] is Staphylococcus aureus. Description: Antibacterial activity against Staphylococcus aureus at 200 ug/disk after 18 hrs by paper disk agar diffusion assay. It counts as functional. The note with it: read-out: IZ.
Assay [8] relates to DU-145. Kind of assay: Cytotoxicity against human DU145. It counts as functional, cell-based.
Assay [9] deals with Paracentrotus lividus. Description: Inhibition of sea urchin egg division.

≈ marks a conversion by molar mass, not a printed value. Calls of active or inactive are those of the source. The calls are words filed in the database; no cut-off is given here.

Our source for the IC50, zone of inhibition and Activity values is ChEMBL document CHEMBL1155555, “Matemone, a new bioactive bromine-containing oxindole alkaloid from the indian ocean sponge Iotrochota purpurea” (J Nat Prod, 2000).

Broadly, the IC50 is the concentration that gives 50% inhibition. `COC1(CO)Nc2cc(Br)ccc2C1=O` (centres undefined) [MATEMONE]: the IC50 was determined as 24 µg/mL (≈ 88.2 µM) in assay [1], 30 µg/mL (≈ 110 µM) in assay [5], 27 µg/mL (≈ 99.2 µM) in assay [8] and 35 µg/mL (≈ 129 µM) in assay [9]. For the same compound, in [2], the zone of inhibition at 100 µg/disc came to 9 mm. Further, the result in assay [3] was inactive. Further, in assay [4], the Activity stood at 40%. Besides, the zone of inhibition at 50 µg/disc in assay [6] is 7 mm. Moreover, the zone of inhibition at 200 µg/disc in assay [7] stood at 11 mm.
